This experiment concerns mesothelioma. In words: Treatment of human mesothelioma patients with cisplatin with or without folic acid. The experiment is classed as in vivo. To be noted: human patients exhibiting mesothelioma; 75-120 mg/m^2 of cisplatin.

SMILES strings stand for the structures.

`N.N.[Cl][Pt][Cl]` [cisplatin, cis-diamminedichloroplatinum] registered a median survival time of 7.2 months and a response rate of 8.5%.
